Legend:
[1] = Dissolution, USP apparatus II (paddles), media containing Cremophor EL and 4% Acconon MC8; type: physicochemical; details: Example 6
Description: Dissolution properties were measured on the four spray dried powders of Example 1, crystalline CoQ10 and two commercial CoQ10 products (one soft gel and one dry powder capsule). All non-commercial samples were hand-filled into size 1 gelatin capsules (Shinogi Qualicaps). USP apparatus II (paddles) (VK 70100®, Varian Inc.) was used, with a bath temperature of 37° C. at 50 rpm for the first 60 minutes and then 200 rpm for an additional 15 minutes. The media contained Cremophoro EL (BASF Corp.), and 4% Acconono® MC8 (Abitec Corp.). Analysis was performed using high pressure liquid chromatography (HPLC) with UV detection (SCL-10 controller with SPD-10A detector module, Shimadzu Scientific Instruments)

[2] = Crystallinity of CoQ10 by modulated differential scanning calorimetry (MDSC); type: physicochemical; details: Example 6, 20% total solids; MDSC heat-only, aluminum hermetic pans
Excerpt: Four spray dried powders were made containing CoQ10 and two solubility-enhancing polymers at two CoQ10:polymer ratios for each polymer.

[3] = dissolution method of Example 2

t50% (time for 50% CoQ10 dissolution) [1, 3]: not attained
t80% (time for 80% CoQ10 dissolution) [1, 3]: not attained
max. CoQ10 release ([1]; dissolution method of Example 2, 75 minutes): 4.3%
crystallinity [2]: 100%
Compound: COC1=C(OC)C(=O)C(C/C=C(\C)CC/C=C(\C)CC/C=C(\C)CC/C=C(\C)CC/C=C(\C)CC/C=C(\C)CC/C=C(\C)CC/C=C(\C)CC/C=C(\C)CCC=C(C)C)=C(C)C1=O [CoQ10 (as received), Coenzyme Q10]

Reference: patent US20070026072A1, “Benzoquinones of enhanced bioavailability” (priority 2005, published 2007)
